From ChEMBL document CHEMBL1127926, “Preparation and antitumor activity of [N-alkyl-Ala2]RA-VII, antitumor cyclic hexapeptide” (Bioorg Med Chem Lett, 1994)
Values after ≈ are worked out from the molar mass of the structure shown.

Experiments:
P388 = assay: Cytotoxicity in murine lymphocytic leukemia (P388) cells; assay type: functional, cell-based; details: Mus musculus
KB = assay: Cytotoxicity in human epidermoid carcinoma of the nasopharynx(KB) cells; assay type: functional, cell-based
Mus musculus [1] = assay: Antitumor activity against P388 leukemia cells was determined in mice at a dose 25.0 mg/kg administered i.p. on days 1-5; assay type: functional; details: route intraperitoneal
Mus musculus [2] = assay: Antitumor activity against P388 leukemia cells was determined in mice at a dose 1.6 mg/kg administered i.p. on days 1-5; assay type: functional; details: route intraperitoneal
Mus musculus [3] = assay: Antitumor activity against P388 leukemia cells was determined in mice at a dose 6.25 mg/kg administered i.p. on days 1-5; assay type: functional; details: route intraperitoneal
Mus musculus [4] = assay: Antitumor activity against P388 leukemia cells was determined in mice at a dose 0.4 mg/kg administered i.p. on days 1-5; assay type: functional; details: route intraperitoneal
Mus musculus [5] = assay: Antitumor activity against P388 leukemia cells was determined in mice at a dose 6.25 mg/kg administered i.p. on days 1-5; Toxic; assay type: functional, organism-based; set-up: dose 6.25 mg/kg
Mus musculus [6] = assay: Antitumor activity against P388 leukemia cells was determined in mice at a dose 3.13 mg/kg administered i.p. on days 1-5; assay type: functional; details: route intraperitoneal
Mus musculus [7] = assay: Antitumor activity against P388 leukemia cells was determined in mice at a dose 0.8 mg/kg administered i.p. on days 1-5; assay type: functional; details: route intraperitoneal
Mus musculus [8] = assay: Antitumor activity against P388 leukemia cells was determined in mice at a dose 12.5 mg/kg administered i.p. on days 1-5; assay type: functional; details: route intraperitoneal

| Structure (SMILES) | IC50 (P388) [µg/mL] | IC50 (KB) [µg/mL] | T/C (Mus musculus [2]) [%] | T/C (Mus musculus [3]) [%] | T/C (Mus musculus [4]) [%] | other results |
| --- | --- | --- | --- | --- | --- | --- |
| CCCCN1C(=O)[C@@H](C)NC(=O)[C@@H]2Cc3ccc(OC)c(c3)Oc3ccc(cc3)C[C@@H](C(=O)N2C)N(C)C(=O)[C@H](C)NC(=O)[C@H](Cc2ccc(OC)cc2)N(C)C(=O)[C@@H]1C | 0.01 (≈ 0.0121 µM) | 0.024 (≈ 0.029 µM) |  |  |  |  |
| COc1ccc(C[C@H]2C(=O)N[C@@H](C)C(=O)N(C)[C@H]3Cc4ccc(cc4)Oc4cc(ccc4OC)C[C@@H](C(=O)N[C@H](C)C(=O)N(C/C=C(\C)CCC=C(C)C)[C@@H](C)C(=O)N2C)N(C)C3=O)cc1 | 0.044 (≈ 0.0485 µM) | 0.062 (≈ 0.0683 µM) | 131 | 148 | 119 | T/C (Mus musculus [1]): 164% |
| CCCN1C(=O)[C@@H](C)NC(=O)[C@@H]2Cc3ccc(OC)c(c3)Oc3ccc(cc3)C[C@@H](C(=O)N2C)N(C)C(=O)[C@H](C)NC(=O)[C@H](Cc2ccc(OC)cc2)N(C)C(=O)[C@@H]1C | 0.0032 (≈ 0.00394 µM) | 0.0097 (≈ 0.0119 µM) |  |  |  |  |
| CCN1C(=O)[C@@H](C)NC(=O)[C@@H]2Cc3ccc(OC)c(c3)Oc3ccc(cc3)C[C@@H](C(=O)N2C)N(C)C(=O)[C@H](C)NC(=O)[C@H](Cc2ccc(OC)cc2)N(C)C(=O)[C@@H]1C | 0.035 (≈ 0.0438 µM) | 0.035 (≈ 0.0438 µM) |  |  |  |  |
| C=CCN1C(=O)[C@@H](C)NC(=O)[C@@H]2Cc3ccc(OC)c(c3)Oc3ccc(cc3)C[C@@H](C(=O)N2C)N(C)C(=O)[C@H](C)NC(=O)[C@H](Cc2ccc(OC)cc2)N(C)C(=O)[C@@H]1C | 0.015 (≈ 0.0185 µM) | 0.013 (≈ 0.016 µM) |  |  |  |  |
| COc1ccc(C[C@H]2C(=O)N[C@@H](C)C(=O)N(C)[C@H]3Cc4ccc(cc4)Oc4cc(ccc4OC)C[C@@H](C(=O)N[C@H](C)C(=O)N[C@@H](C)C(=O)N2C)N(C)C3=O)cc1 | 0.0013 (≈ 0.00169 µM) | 0.0023 (≈ 0.00298 µM) | 152 |  | 144 | Activity (Mus musculus [5]): Toxic; T/C (Mus musculus [6]): 163%; T/C (Mus musculus [7]): 144% |
| CC/C=C/CN1C(=O)[C@@H](C)NC(=O)[C@@H]2Cc3ccc(OC)c(c3)Oc3ccc(cc3)C[C@@H](C(=O)N2C)N(C)C(=O)[C@H](C)NC(=O)[C@H](Cc2ccc(OC)cc2)N(C)C(=O)[C@@H]1C | 0.01 (≈ 0.0119 µM) | 0.022 (≈ 0.0262 µM) | 125 | 155 | 113 |  |
| COc1ccc(C[C@H]2C(=O)N[C@@H](C)C(=O)N(C)[C@H]3Cc4ccc(cc4)Oc4cc(ccc4OC)C[C@@H](C(=O)N[C@H](C)C(=O)N(C)[C@@H](C)C(=O)N2C)N(C)C3=O)cc1 | 0.0012 (≈ 0.00153 µM) | 0.0077 (≈ 0.00981 µM) |  |  |  |  |
| CCCCCN1C(=O)[C@@H](C)NC(=O)[C@@H]2Cc3ccc(OC)c(c3)Oc3ccc(cc3)C[C@@H](C(=O)N2C)N(C)C(=O)[C@H](C)NC(=O)[C@H](Cc2ccc(OC)cc2)N(C)C(=O)[C@@H]1C | 0.018 (≈ 0.0214 µM) | 0.063 (≈ 0.0749 µM) |  |  |  |  |
| COc1ccc(C[C@H]2C(=O)N[C@@H](C)C(=O)N(C)[C@H]3Cc4ccc(cc4)Oc4cc(ccc4OC)C[C@@H](C(=O)N[C@H](C)C(=O)N(C/C=C/c4ccccc4)[C@@H](C)C(=O)N2C)N(C)C3=O)cc1 | 0.0094 (≈ 0.0106 µM) | 0.03 (≈ 0.0338 µM) |  |  |  |  |
| C/C=C/CN1C(=O)[C@@H](C)NC(=O)[C@@H]2Cc3ccc(OC)c(c3)Oc3ccc(cc3)C[C@@H](C(=O)N2C)N(C)C(=O)[C@H](C)NC(=O)[C@H](Cc2ccc(OC)cc2)N(C)C(=O)[C@@H]1C | 0.0076 (≈ 0.00921 µM) | 0.018 (≈ 0.0218 µM) | 127 | 155 | 112 |  |
| C=C(C)CN1C(=O)[C@@H](C)NC(=O)[C@@H]2Cc3ccc(OC)c(c3)Oc3ccc(cc3)C[C@@H](C(=O)N2C)N(C)C(=O)[C@H](C)NC(=O)[C@H](Cc2ccc(OC)cc2)N(C)C(=O)[C@@H]1C | 0.009 (≈ 0.0109 µM) | 0.027 (≈ 0.0327 µM) |  |  |  |  |
| COc1ccc(C[C@H]2C(=O)N[C@@H](C)C(=O)N(C)[C@H]3Cc4ccc(cc4)Oc4cc(ccc4OC)C[C@@H](C(=O)N[C@H](C)C(=O)N(CC=C(C)C)[C@@H](C)C(=O)N2C)N(C)C3=O)cc1 | 0.0058 (≈ 0.00691 µM) | 0.0064 (≈ 0.00763 µM) | 132 | 160 | 123 | T/C (Mus musculus [8]): 174% |
